Results on 19 compounds are retold here after US11254668B2, “Pyrazolo[1,5-A]pyrazin-4-yl and related derivatives” (Pfizer Inc., priority 2017, dated 2022).

Each structure is given as a SMILES string.

Type in all cases: biochemical
Experiment [1] addresses JAK2 (Homo sapiens (Human), UniProt O60674). The experiment is described as follows: JAK Caliper Enzyme Assay at 1 mM ATP, JAK2. The gist of the method: (§1)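 Recombinant human kinase domains phosphorylate a fluorescent synthetic peptide at 1 mM ATP and room temperature, with enzyme level and time tuned to 20–30% conversion before an EDTA stop. Microfluidic mobility-shift separation gives percent product from peak heights. Percent effect against plate controls (DMSO baseline) is plotted versus compound concentration.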

The target in experiment [2] is JAK3 (Homo sapiens (Human), UniProt P52333). In words: JAK Caliper Enzyme Assay at 1 mM ATP, JAK3. The gist of the method:
(§2)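 Recombinant human kinase domains phosphorylated a fluorescent synthetic peptide at room temperature, with enzyme level and time tuned to 20% to 30% conversion; EDTA stop buffer ended reactions. Mobility-shift separation gave percent product from peak heights, normalised to DMSO and positive controls, and IC50s came from concentration–effect curves.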

In experiment [3] the target is TYK2 (Homo sapiens (Human), UniProt P29597). In words: JAK Caliper Enzyme Assay at 1 mM ATP, TYK2. The gist of the method:
as §1

Experiment [4] has as its target JAK1 (Homo sapiens (Human), UniProt P23458). In words: JAK Caliper Enzyme Assay at 1 mM ATP, JAK1. The gist of the method:
as §2

Sequence of TYK2 (P29597 897-1176): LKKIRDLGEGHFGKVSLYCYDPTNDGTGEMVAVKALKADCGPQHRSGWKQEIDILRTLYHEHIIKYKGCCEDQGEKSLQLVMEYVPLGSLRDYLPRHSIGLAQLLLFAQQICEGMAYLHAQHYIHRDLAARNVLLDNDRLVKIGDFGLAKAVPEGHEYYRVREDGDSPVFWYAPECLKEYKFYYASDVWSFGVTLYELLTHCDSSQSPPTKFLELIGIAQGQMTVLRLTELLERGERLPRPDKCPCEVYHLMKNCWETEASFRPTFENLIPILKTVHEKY
Sequence of JAK3 (P52333 822-1111): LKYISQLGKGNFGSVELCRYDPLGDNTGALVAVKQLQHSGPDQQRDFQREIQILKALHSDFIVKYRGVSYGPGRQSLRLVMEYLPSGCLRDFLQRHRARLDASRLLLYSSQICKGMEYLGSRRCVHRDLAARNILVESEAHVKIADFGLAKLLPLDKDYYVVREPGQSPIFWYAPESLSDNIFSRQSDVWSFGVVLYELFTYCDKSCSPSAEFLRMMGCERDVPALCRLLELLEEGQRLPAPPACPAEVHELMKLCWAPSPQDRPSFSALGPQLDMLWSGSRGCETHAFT
Sequence of JAK2 (O60674 849-1124): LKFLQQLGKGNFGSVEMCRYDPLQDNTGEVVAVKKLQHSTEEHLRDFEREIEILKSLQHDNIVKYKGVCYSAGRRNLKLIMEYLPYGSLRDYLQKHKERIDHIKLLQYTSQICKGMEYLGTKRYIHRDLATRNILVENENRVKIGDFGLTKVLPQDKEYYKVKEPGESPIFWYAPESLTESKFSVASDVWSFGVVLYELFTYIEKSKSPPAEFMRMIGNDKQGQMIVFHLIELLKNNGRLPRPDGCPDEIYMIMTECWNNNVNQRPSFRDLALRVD
Sequence of JAK1 (P23458 875-1153): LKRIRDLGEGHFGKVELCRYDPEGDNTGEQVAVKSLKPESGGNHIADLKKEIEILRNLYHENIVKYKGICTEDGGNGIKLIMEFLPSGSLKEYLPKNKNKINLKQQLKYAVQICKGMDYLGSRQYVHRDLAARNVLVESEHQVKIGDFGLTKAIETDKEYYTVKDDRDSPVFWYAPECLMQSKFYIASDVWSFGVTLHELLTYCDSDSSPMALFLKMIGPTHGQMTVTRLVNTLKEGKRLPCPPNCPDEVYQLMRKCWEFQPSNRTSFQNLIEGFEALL

`N#CCC1(n2ccc(-c3nc(-c4ccc(O)nc4)cc4ncccc34)n2)CN(CC(F)(F)F)C1` [Example 183, [3-{3-[7-(6-hydroxypyridin-3-yl)-1,6-naphthyridin-5-yl]-1H-pyrazol-1-yl}-1-(2,2,2-trifluoroethyl)azetidin-3-yl]acetonitrile]: the IC50 – broadly, the midpoint of a concentration-inhibition curve – in experiment [1] is 397 nM; in experiment [2] it was greater than 10000 nM; in experiment [3] it was 21 nM; in experiment [4], 384 nM.

As to `CCN1CC(CC#N)(n2ccc(-c3nc(-c4ccc(O)nc4)cc4ncccc34)n2)C1` [Example 184], the IC50 is 4030 nM in experiment [1], greater than 10000 nM in experiment [2], 221 nM in experiment [3] and 4030 nM in experiment [4].

With `N#CCC1(n2ccc(-c3nc(-c4ccc(O)nc4)cc4ncccc34)n2)CN(C2CC(F)(F)C2)C1` [Example 185, [1-(3,3-difluorocyclobutyl)-3-{3-[7-(6-hydroxypyridin-3-yl)-1,6-naphthyridin-5-yl]-1H-pyrazol-1-yl}azetidin-3-yl]acetonitrile], the IC50 was 2070 nM in experiment [1], greater than 10000 nM in experiment [2], 88 nM in experiment [3] and 2030 nM in experiment [4].

As to `COc1ncccc1-c1cc2ncccc2c(-c2ccn(C3(CC#N)CN(S(C)(=O)=O)C3)n2)n1` [Example 187, [3-{3-[7-(2-methoxypyridin-3-yl)-1,6-naphthyridin-5-yl]-1H-pyrazol-1-yl}-1-(methylsulfonyl)azetidin-3-yl]acetonitrile], the IC50 was greater than 10000 nM in experiment [1], greater than 10000 nM in experiment [2], 781 nM in experiment [3] and greater than 10000 nM in experiment [4].

With `COc1ccc(-c2cc3ncccc3c(-c3ccn(C4(CC#N)CN(CC(F)(F)F)C4)n3)n2)cn1` [Example 188, [3-{3-[7-(6-methoxypyridin-3-yl)-1,6-naphthyridin-5-yl]-1H-pyrazol-1-yl}-1-(2,2,2-trifluoroethyl)azetidin-3-yl]acetonitrile], the IC50 in experiment [1] is 902 nM; in experiment [2], greater than 10000 nM; in experiment [3] it was 80 nM; in experiment [4], 2720 nM.

As to `COc1cc(-c2cc3ncccc3c(-c3ccn(C4(CC#N)CN(S(C)(=O)=O)C4)n3)n2)ccn1` [Example 189], the IC50 was 725 nM in experiment [1], greater than 10000 nM in experiment [2], 84 nM in experiment [3] and 8340 nM in experiment [4].

For the compound `N#CC[C@]1(n2ccc(-c3nc(-c4ccc(N)cn4)cc4ncccc34)n2)C[C@@H](C#N)C1` [Example 190, cis-3-{3-[7-(5-aminopyridin-2-yl)-1,6-naphthyridin-5-yl]-1H-pyrazol-1-yl}-3-(cyanomethyl)cyclobutanecarbonitrile], the IC50 is 596 nM in experiment [1], greater than 10000 nM in experiment [2], 55 nM in experiment [3] and 1310 nM in experiment [4].

`CS(=O)(=O)N1CC(CC#N)(n2ccc(-c3nc(-c4cccnc4N)cc4ncccc34)n2)C1` [Example 191]: the IC50 in experiment [1] was 931 nM; in experiment [2], greater than 10000 nM; in experiment [3], 75 nM; in experiment [4], 5060 nM.

Turning to `N#CCC1(n2ccc(-c3nc(-c4ccc(N)nc4)cc4ncccc34)n2)CN(CC(F)(F)F)C1` [Example 192], the IC50 is 841 nM in experiment [1], greater than 10000 nM in experiment [2], 68 nM in experiment [3] and 951 nM in experiment [4].

Consider `CS(=O)(=O)N1CC(CC#N)(n2ccc(-c3nc(-c4cncc(N)c4)cc4ncccc34)n2)C1` [Example 193], for which the IC50 is 1680 nM in experiment [1], greater than 10000 nM in experiment [2], 147 nM in experiment [3] and 5570 nM in experiment [4].

For the compound `CS(=O)(=O)N1CC(CC#N)(n2ccc(-c3nc(-c4ccc(N)nc4)cc4ncccc34)n2)C1` [Example 194], the IC50 is 436 nM in experiment [1], greater than 10000 nM in experiment [2], 45 nM in experiment [3] and 843 nM in experiment [4].

For the compound `N#CC[C@]1(n2ccc(-c3nc(-c4ccc(N)nc4)cc4ncccc34)n2)C[C@@H](C#N)C1` [Example 195, cis-3-{3-[7-(6-aminopyridin-3-yl)-1,6-naphthyridin-5-yl]-1H-pyrazol-1-yl}-3-(cyanomethyl)cyclobutanecarbonitrile], the IC50 in experiment [1] stood at 31 nM; in experiment [2] it was 2060 nM; in experiment [3], 9 nM; in experiment [4], 50 nM.

Regarding `N#CC[C@]1(n2ccc(-c3nc(-c4ccc(N)nc4)cc4ncccc34)n2)C[C@H](C#N)C1` [Example 196, trans-3-{3-[7-(6-aminopyridin-3-yl)-1,6-naphthyridin-5-yl]-1H-pyrazol-1-yl}-3-(cyanomethyl)cyclobutanecarbonitrile], the IC50 in experiment [1] was 233 nM; in experiment [2] it was greater than 10000 nM; in experiment [3], 45 nM; in experiment [4], 488 nM.

With `N#CCC1(n2ccc(-c3nc(-c4ccnc(N)c4)cc4ncccc34)n2)CN(CC(F)(F)F)C1` [Example 197], the IC50 in experiment [1] is 688 nM; in experiment [2], greater than 10000 nM; in experiment [3], 37 nM; in experiment [4] it was 656 nM.

Consider `N#CC[C@]1(n2ccc(-c3nc(-c4ccnc(N)c4)cc4ncccc34)n2)C[C@@H](C#N)C1` [Example 198, cis-3-{3-[7-(2-aminopyridin-4-yl)-1,6-naphthyridin-5-yl]-1H-pyrazol-1-yl}-3-(cyanomethyl)cyclobutanecarbonitrile], for which the concentration for half-maximal inhibition (IC50) amounted to 32 nM in experiment [1], 1930 nM in experiment [2], 7 nM in experiment [3] and 39 nM in experiment [4].

On to `N#CCC1(n2ccc(-c3nc(-c4ccnc(N)c4)cc4ncccc34)n2)CC(C#N)C1` (stereo not drawn) [Example 199, trans-3-{3-[7-(2-aminopyridin-4-yl)-1,6-naphthyridin-5-yl]-1H-pyrazol-1-yl}-3-(cyanomethyl)cyclobutanecarbonitrile], for which the IC50 in experiment [1] is 199 nM; in experiment [2], greater than 10000 nM; in experiment [3], 20 nM; in experiment [4] it was 337 nM.

For `C[C@]1(C#N)C[C@](CC#N)(n2ccc(-c3nc(-c4ccnc(N)c4)cc4ncccc34)n2)C1` [Example 200, trans-3-{3-[7-(2-aminopyridin-4-yl)-1,6-naphthyridin-5-yl]-1H-pyrazol-1-yl}-3-(cyanomethyl)-1-methylcyclobutanecarbonitrile], the IC50 in experiment [1] is 2970 nM; in experiment [2], greater than 10000 nM; in experiment [3] it was 573 nM; in experiment [4], 3220 nM.

Consider `C[C@]1(C#N)C[C@@](CC#N)(n2ccc(-c3nc(-c4ccnc(N)c4)cc4ncccc34)n2)C1` [Example 201, cis-3-{3-[7-(2-aminopyridin-4-yl)-1,6-naphthyridin-5-yl]-1H-pyrazol-1-yl}-3-(cyanomethyl)-1-methylcyclobutanecarbonitrile], for which the IC50 in experiment [1] was 177 nM; in experiment [2], greater than 10000 nM; in experiment [3], 31 nM; in experiment [4] it was 308 nM.

For `CCOC(=O)Nc1cncc(-c2cc3ncccc3c(-c3ccn(C4(CC#N)CN(S(C)(=O)=O)C4)n3)n2)c1` [Example 202, ethyl [5-(5-{1-[3-(cyanomethyl)-1-(methylsulfonyl)azetidin-3-yl]-1H-pyrazol-3-yl}-1,6-naphthyridin-7-yl)pyridin-3-yl]carbamate], the IC50 is greater than 10000 nM in experiment [1], greater than 10000 nM in experiment [2], 135 nM in experiment [3] and greater than 10000 nM in experiment [4].
